Laboratory results reported in patent US20250346943A1, “DEGRADER COMPOUNDS OF QSOX1 mRNA” (UNIVERSITY OF FLORIDA RESEARCH FOUNDATION, INCORPORATED, priority 2022, published 2025).

Tests used:
SQSTM1 protein = SQSTM1 protein abundance by Western blotting in MDA-MB-231 cells; assay type: cell-based, human; details: F1-Amide 20 μM, F1-RIBOTAC 10 μM, 48 h
Method: Measuring Protein Abundance by Western Blotting. MDA-MB-231 cells were seeded in 6-well plates at ˜50% confluency and treated with vehicle (DMSO) or compound as described above but without EU treatment. After 16 h, the compound-containing growth medium was removed and replaced with fresh medium containing compound (re-dosing). After an additional 32 h incubation, total protein was harvested (48 h total treatment time). The cells were then washed twice with cold 1×DPBS, and total protein was harvested by using Mammalian Protein Extraction Reagent (M-PER, Thermo Scientific) per the manufacturer's protocol. Protein concentration was quantified by using BCA Protein Assay Kit (Pierce), and the proteins were separated by using 10% SDS-polyacrylamide gel (20 μg protein per lane). After gel electrophoresis in 1× Running Buffer (50 mM MOPS, 50 mM Tris-base, pH 7.5, 1 mM EDTA, and 0.1% (w/v) SDS) at 120 V for 1 h, the proteins were transferred to a PVDF membrane (0.45 μm, Cytiva) at 300 mA for 1 h in 1× Transfer Buffer (25 mM Bicine, 25 mM Tris-base, pH 7.5, 1:4 MeOH:H2O). The membrane was blocked with 5% (w/v) non-fat dry milk in TBST (1×TBS containing 0.1% (v/v) Tween-20) for 1 h at room temperature. […] Expression levels of proteins were quantified based on band intensity by using ImageJ. […]

MDA-MB-231 TBNC cells = test: Viability of MDA-MB-231 cells; assay type: cell-based, human; set-up: dose or concentration left out as unconfirmed; details: the highest dose
[1] = tested on: proteins of MDA-MB-231 cells (human proteome); test: Proteomics analysis of proteins cross-linked in MDA-MB-231 cells; assay type: cell-based; details: of the 3,158 proteins detectable before pull-down
Method: Proteomic Sample Preparation and Analysis. MDA-MB-231 cells were seeded in 60 mm dishes and allowed to reach ˜80% confluency. The cells were then treated with […] of compound in growth medium and incubated for 16 h. Cells were washed with 1×DPBS and irradiated with UV light for 10 min. For each condition, two biological replicates were prepared, and each biological replicate was split into three technical replicates. […]
Pulled-down proteins were released from beads by resuspending in 6 M urea/1×PBS (0.5 mL) supplemented with 10 mM of TCEP at room temperature for 30 min. […] To the samples was added 1 volume of isopropanol containing 1% (v/v) trifluoroacetic acid, followed by a styrenedivinylbenzene reverse-phase sulfonate (SDB-RPS) StageTip 12 Peptides were resuspended in 0.1% (v/v) formic acid (FA) in water and analyzed using Proxeon EASY-nLC 1200 nano-UHPLC coupled to QExactive HF-X Quadrupole-Orbitrap mass spectrometer (Thermo Scientific). […]
The MS data were analyzed with MaxQuant13 (V1.6.1.0) and searched against the human proteome (Uniprot) and a common list of contaminants included in MaxQuant. […] The minimum peptide length was set to six amino acids and peptide re-quantification was enabled with the minimal number of peptides per protein set to 2. […]

CCOC(=O)C1=C(Nc2ccccc2)S/C(=C\c2ccc(OCCOCCOCCOCCNC(=O)CCC(=O)N(C)[C@H]3CC[C@@H](c4ccc(Cl)c(Cl)c4)c4ccccc43)c(O)c2)C1=O [Compound F1-RIBOTAC]
effect on SQSTM1 protein levels (SQSTM1 protein): Neither | effect on viability (MDA-MB-231 TBNC cells): no effect on viability

C#CCCC1(CCC(=O)N(C)[C@H]2CC[C@@H](c3ccc(Cl)c(Cl)c3)c3ccccc32)N=N1 [Compound F1]
proteins selectively pulled-down (not pulled-down by the control probe) [1]: 79 proteins
